Literature values, collected in patent US20060030591A1 (Wyeth, priority 2004, published 2006).

Assays:
uterus = settings: qualitative
[1] = system: tamoxifen-resistent MCF-7 breast cancer xenografts; settings: recent preclinical studies, qualitative
[2] = system: tamoxifen-sensitive cells lines; settings: other studies, qualitative

For `Cc1c(-c2ccc(O)cc2)n(Cc2ccc(OCCN3CCCCC3)cc2)c2ccc(O)cc12.Cl` [pipindoxifene, 2-(4-hydroxyphenyl)-3-methyl-1-[4-(2-piperidin-1-yl-ethoxy)-benzyl]-1H-indol-5-ol hydrochloride], the “effect in the uterus” value (uterus; Greenberger, et al., Clin. Cancer Res. (2001)) is listed as “antiestrogenic in the uterus”, the uterotropic activity (uterus; tissue selective estrogenic effects) is listed as “little or no uterotropic activity” and the “growth of tamoxifen-resistent MCF-7 breast cancer xenografts” value [1] is listed as “inhibited the growth”. For the same molecule, the “effectiveness in tamoxifen-sensitive cells lines” value [2] was “show effectiveness”.
